What was measured:
[1] = target: T1, human recombinant Yes [a.a. 2–543 (end)] (Homo sapiens, UniProt P07947); assay: ADP-Glo kinase assay, IC50 determination (dose-response curves) for Yes; assay type: biochemical; conditions: for IC50: 5.5-nmol L−1 Yes, 0.013-mmol L−1 ATP, 0.2-mg mL−1 substrate (poly Glu-Tyr, 4:1); for dose-response relationship (DRR): IC50 determination; for "inhibition activity" in the whole range of concentrations: dose-response test, no DRR
T1 construct: human recombinant Yes [a.a; 2–543 (end)]; purchased BPS Bioscience 40488
T1 sequence (P07947 2-543): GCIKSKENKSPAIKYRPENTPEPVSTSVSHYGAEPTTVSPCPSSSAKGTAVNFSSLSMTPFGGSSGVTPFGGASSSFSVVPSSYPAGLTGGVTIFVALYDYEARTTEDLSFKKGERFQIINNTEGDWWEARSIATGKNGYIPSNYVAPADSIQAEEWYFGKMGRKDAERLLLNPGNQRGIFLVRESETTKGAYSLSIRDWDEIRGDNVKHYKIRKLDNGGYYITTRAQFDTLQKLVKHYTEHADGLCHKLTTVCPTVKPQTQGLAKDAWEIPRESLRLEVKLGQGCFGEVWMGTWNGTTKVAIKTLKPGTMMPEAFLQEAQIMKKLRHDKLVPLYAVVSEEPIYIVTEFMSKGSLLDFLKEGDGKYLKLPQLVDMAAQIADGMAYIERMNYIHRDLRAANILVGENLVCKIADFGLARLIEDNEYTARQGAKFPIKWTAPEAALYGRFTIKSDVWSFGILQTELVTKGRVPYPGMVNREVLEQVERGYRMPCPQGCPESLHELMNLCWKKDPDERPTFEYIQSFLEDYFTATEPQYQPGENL
Method: All inhibitory assays of the phosphorylation activity of Yes were performed in accordance with the Promega Technical Manual for the ADP-Glo™ Kinase Assay (Fitchburg, WI, USA. Catalog number: V9102). The human recombinant Yes [a.a. 2–543 (end)] was purchased from BPS Bioscience (catalog number: 40488). The details of the assay protocol and reagent information are given elsewhere.
The screening was conducted in three steps consisting of the first screening, the second screening, and the IC50 determination, as can be illustrated in Fig. 1b. First, we determined the inhibition rates of the 1,991 compounds. Each compound was placed in 4 wells of a 384-well plate. In total, 80 compounds were assayed on one plate and the other wells were used for positive and negative controls. The compounds were randomly placed on plates so that compounds proposed by one group were not placed on a plate together. A mean of four inhibition rates for each compound was compared to criteria for the first screening. […] Second, the inhibition rates of the screened compounds were determined on one plate using the same procedure of the first screening, where compounds were dissolved from fresh powder. […] Screened compounds were then evaluated for their IC50 values. […]
determine their IC50 values. Each dose-response curve was initially built using 8-point, 2-fold serial dilutions starting at 100 μmol L−1, with each concentration point in 4 […]
Assay was carried out under the same conditions as the primary screening, in summary, the final reagent concentrations were 5.5-nmol L−1 Ye s , 0.013-mmol L−1 ATP, and 0.2-mg mL−1 substrate (poly Glu-Tyr peptides, Glu:Tyr=4:1).
The curves were analyzed by GraphPad Prism (sigmoidal fit with variable slope). IC50 […]
standard deviations of the measurements.

[2] = target: T1, human recombinant Yes [a.a. 2–543 (end)]; assay: ADP-Glo kinase assay, inhibition rates of Yes phosphorylation activity (first and second screening); assay type: biochemical; conditions: 10 μmol L−1 compound; for First screening IR (inhibition rate): mean of n = 4 wells; for Second screening IR (inhibition rate): dissolved from fresh powder, n = 4
Method in brief: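 Hits from a first pass were rescreened after re-dissolution from fresh powder. The first pass reported the mean inhibition rate of quadruplicate wells per compound. Activity was that of recombinant human Yes [a.a. 2–543] kinase, read out with the ADP-Glo ADP-detection method.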

First screening IR (inhibition rate) [2] [%]	SMILES	further results
72	Cc1cc(N2CCc3c(ncn3C3CC3)C2)c2cc(OC(F)F)ccc2n1 [Compound Z1252403274]	IC50 [1]: 20 µM; dose-response relationship (DRR) [1]: good DRR; Second screening IR (inhibition rate) [2]: 50%
67	O=C(CSc1ccc2ccccc2n1)Nc1nsc(-c2ccc(Cl)cc2)n1 [Compound Z275023406]	IC50 [1]: 37.4 µM; dose-response relationship (DRR) [1]: good DRR; Second screening IR (inhibition rate) [2]: 64%
67	Fc1ccc(-c2cc3ncnc(N/N=C/c4ccncc4)c3s2)cc1 [Compound Z50080378]	dose-response relationship (DRR) [1]: did not reveal a DRR; "inhibition activity" in the whole range of concentrations [1]: around 50%; Second screening IR (inhibition rate) [2]: 55%
51	CC(=O)Nc1ccc(/C=N/Nc2ncnc3cc(-c4ccc(F)cc4)sc23)cc1 [Compound Z50080181]	dose-response relationship (DRR) [1]: did not reveal a DRR; "inhibition activity" in the whole range of concentrations [1]: around 50%; Second screening IR (inhibition rate) [2]: 47%
29	CCCC(C)c1cc(NC(=O)c2ccc(N3CCNC3=O)cc2)n[nH]1 (stereo not shown) [Compound Z1283491630]	dose-response relationship (DRR) [1]: did not reveal a DRR; "inhibition activity" in the whole range of concentrations [1]: around 50%; Second screening IR (inhibition rate) [2]: 49%
62	COc1ccc(Br)cc1/C=N/Nc1ncnc2nc[nH]c12 [Compound Z57745307]	dose-response relationship (DRR) [1]: did not reveal a DRR; "inhibition activity" in the whole range of concentrations [1]: around 50%; Second screening IR (inhibition rate) [2]: 61%
6	CC(=O)N1CCN(c2nc(C(F)(F)F)nc3ccsc23)CC1 [Compound Z370715150]	–
13	Clc1ccc(/C=N/Nc2ncnc3c2cnn3-c2ccccc2)cc1 [Compound Z56795594]	–
9	Cc1oc(-n2cccc2)c(C#N)c1C(=O)Nc1cccc(/C=C/c2ccccn2)c1 [Compound Z89489183]	–
-5	CC(C)CN1CCOC(CNC(=O)c2cc3cc(F)ccc3[nH]2)C1 (stereo not shown) [Compound Z300664804]	–
-13	Cc1ccc(Cn2ncc3c(N4CCN(CCO)CC4)ncnc32)cc1 [Compound Z1172235406]	–
13	Cc1c(C#N)c(NC(=O)CN2CCN(c3ncnc4c3cnn4C)CC2)n(Cc2ccccc2)c1C [Compound Z234865770]	–
1	Cc1cc(C)c(C)c(S(=O)(=O)N(C)C2CCS(=O)(=O)C2)c1C (stereo not shown) [Compound Z71311814]	–
11	CCC(C)CS(=O)(=O)N1CCS(=O)(=O)C(C)(C)C1 (stereo not shown) [Compound Z1403432995]	–
42	Cc1cc(N2CCN(C(=O)Nc3cc(C)c4cn[nH]c4c3)CC2)nc(C)n1 [Compound Z1557589830]	–
-5	COc1ccc(NC(=O)C(=O)c2c(C)nn(-c3ccccc3)c2C)cc1OCc1cn2ccccc2n1 [Compound Z605682156]	–
23	CCS(=O)(=O)Nc1ccc(C2=NN(S(=O)(=O)c3ccc(C)cc3)C(c3ccco3)C2)cc1 (stereo not shown) [Compound Z57514609]	–
-7	FC(F)(F)c1ccnc(Nc2ccc(N3CCOCC3)nc2)n1 [Compound Z318998372]	–
4	Cc1c(C(=O)NCCOc2ccccc2)[nH]c2c1C(=O)CCC2 [Compound Z51800409]	–
-1	CCCN(C1CCS(=O)(=O)C1)S(=O)(=O)c1ccccc1Cl (stereo not shown) [Compound Z45480819]	–
-11	c1ccc(-n2ncc3c2CCNC3)cc1 [Compound Z409420032]	–
-7	CCOC(=O)/C(C#N)=C\C1=C2OC(c3ccccc3)=CC(c3ccccc3)=C2CCC1 [Compound Z56780975]	–
-11	CC(CNC(=O)c1ncncc1Br)CN1CCN(C)CC1 (stereo not shown) [Compound Z1936607769]	–
-15	COc1ccc(CCN2CC(C(=O)Nc3c(-c4ccccc4)nc4ccc(C)cn34)CC2=O)cc1OC (stereo not shown) [Compound Z70997275]	–
-15	CSc1ccc(CSCc2nc(N)nc(Nc3ccccc3)n2)cc1 [Compound Z99558919]	–
19	O=C(Nc1ccc2[nH]c(=O)[nH]c2c1)c1occc1-c1ccccc1 [Compound Z118811128]	–
-10	CC(C)N(CCNC(=O)CCc1nnc2n(Cc3ccc(F)cc3)c(=O)c3ccccc3n12)Cc1ccco1 [Compound Z1169067840]	–

First screening IR (inhibition rate) [2] [%]	SMILES	further results
1	COc1cc(C(=O)OC(C)C(=O)NC(C)(C#N)C(C)C)ccc1Oc1ccc(Cl)cc1[N+](=O)[O-] (stereo not shown) [Compound Z18025700]	–
8	C=CCn1c(=O)c2ccccc2n2c(SCC(=O)Nc3ccc(N4CCN(C)CC4)cn3)nnc12 [Compound Z432326346]	–
11	Cc1cc(F)ccc1NC(=O)C(C)Oc1cccc(Cl)c1 (stereo not shown) [Compound Z29827650]	–
54	CC(C)n1ncc2cc(/C=C3/CN(C)Cc4c3nc3ccccc3c4C(=O)O)c(Cl)nc21 [Compound Z336032562]	Second screening IR (inhibition rate) [2]: -2%
-1	Cc1ccc2nc3c(c(C(=O)O)c2c1)CCC/C3=C/c1cnn(C(C)C)c1 [Compound Z1184925017]	–
25	Cn1cc(NC(=O)C2(c3cccc(C(F)(F)F)c3)CC2)cn1 [Compound Z1068296272]	–
13	FC(F)(F)c1ccnc(Nc2ccc(NC3CCOCC3)cc2)n1 [Compound Z1021076320]	–
-2	Cc1ccc(-c2cc(C(=O)NC(c3ccccc3F)c3nccn3C)c3cnn(C(C)C)c3n2)s1 (stereo not shown) [Compound Z225919834]	–
2	CC(C)=CC1C(C(=O)Nc2c(C)cc(C)cc2C)C1(C)C (stereo not shown) [Compound Z169558548]	–
1	CN1C/C(=C/c2ccc(-n3cncn3)cc2)c2nc3ccccc3c(C(=O)O)c2C1 [Compound Z285929216]	–
13	O=C1Cc2cc(Nc3nccc(C(F)(F)F)n3)ccc2N1 [Compound Z1199266078]	–
51	CCOc1cc(/C=C2/CCCc3c2nc2ccccc2c3C(=O)O)ccc1OC [Compound Z46035916]	Second screening IR (inhibition rate) [2]: -8%
5	Cn1cc(Nc2nccc(C(F)(F)F)n2)cn1 [Compound Z646439314]	–
4	Cc1cn2c3c(=O)n(CC(C)C)c(=O)n(C)c3nc2n1-c1ccc(S(N)(=O)=O)cc1 [Compound Z271111810]	–
-9	CC(Oc1cccc(Cl)c1Cl)C(=O)Nc1ccc2nc[nH]c(=O)c2c1 (stereo not shown) [Compound Z927306002]	–
18	C=CCNc1nc(C(=O)OCc2csc(-c3ccccc3)n2)cs1 [Compound Z17964966]	–
12	Cc1ccc(-c2cc(-c3ccccc3F)c3cc(Cl)ccc3n2)cc1.Cl [Compound Z48955827]	–
4	O=S1(=O)CC=C(S(=O)(=O)Cl)C1 [Compound Z57163400]	–
-8	CCc1cc(CNC(=O)NCc2ccc3cc(OC)ccc3c2)on1 [Compound Z1256754058]	–
3	CC1(C)CN=C(N2CCN(C(=O)c3ccc(C(N)=O)cc3)CC2)S1 [Compound Z1250701189]	–
1	COC(=O)c1cc(CSc2n[nH]c(-c3ccccc3)n2)oc1C [Compound Z25398505]	–
-11	Cc1nn(CCC#N)c2nc(-c3ccccc3)cc(C(F)(F)F)c12 [Compound Z55426833]	–
5	CC1CCC(NS(=O)(=O)c2ccc(N3CCCC(c4nnc5ccccn45)C3)c([N+](=O)[O-])c2)CC1 (stereo not shown) [Compound Z166704886]	–
-4	Cc1cccc(-c2nc(NC(=O)C3Cc4cc(F)ccc4O3)n[nH]2)n1 (stereo not shown) [Compound Z1279679753]	–
-5	O=S(=O)(c1cccc(Cl)c1Cl)N1CCN(Cc2nc(-c3ccc(F)cc3)no2)CC1 [Compound Z52670207]	–
-35	O=C(NCC(c1ccccc1Cl)N1CCCC1)C1CCN(C(=O)c2cccs2)CC1 (stereo not shown) [Compound Z87671607]	–
